Data taken from article PMC4206343, “A Novel Aminothiazole KY-05009 with Potential to Inhibit Traf2- and Nck-Interacting Kinase (TNIK) Attenuates TGF-β1-Mediated Epithelial-to-Mesenchymal Transition in Human Lung Adenocarcinoma A549 Cells” (PLoS ONE, 2014).

Biological target: Traf2- and Nck-interacting kinase (TNIK) (Homo sapiens, UniProt Q9UKE5)
Assay: ATP competition binding assay (KdELECT, KINOMEscan), triplicate 11-point dose-response curves

Traf2- and Nck-interacting kinase (TNIK), sequence (Q9UKE5 whole entry): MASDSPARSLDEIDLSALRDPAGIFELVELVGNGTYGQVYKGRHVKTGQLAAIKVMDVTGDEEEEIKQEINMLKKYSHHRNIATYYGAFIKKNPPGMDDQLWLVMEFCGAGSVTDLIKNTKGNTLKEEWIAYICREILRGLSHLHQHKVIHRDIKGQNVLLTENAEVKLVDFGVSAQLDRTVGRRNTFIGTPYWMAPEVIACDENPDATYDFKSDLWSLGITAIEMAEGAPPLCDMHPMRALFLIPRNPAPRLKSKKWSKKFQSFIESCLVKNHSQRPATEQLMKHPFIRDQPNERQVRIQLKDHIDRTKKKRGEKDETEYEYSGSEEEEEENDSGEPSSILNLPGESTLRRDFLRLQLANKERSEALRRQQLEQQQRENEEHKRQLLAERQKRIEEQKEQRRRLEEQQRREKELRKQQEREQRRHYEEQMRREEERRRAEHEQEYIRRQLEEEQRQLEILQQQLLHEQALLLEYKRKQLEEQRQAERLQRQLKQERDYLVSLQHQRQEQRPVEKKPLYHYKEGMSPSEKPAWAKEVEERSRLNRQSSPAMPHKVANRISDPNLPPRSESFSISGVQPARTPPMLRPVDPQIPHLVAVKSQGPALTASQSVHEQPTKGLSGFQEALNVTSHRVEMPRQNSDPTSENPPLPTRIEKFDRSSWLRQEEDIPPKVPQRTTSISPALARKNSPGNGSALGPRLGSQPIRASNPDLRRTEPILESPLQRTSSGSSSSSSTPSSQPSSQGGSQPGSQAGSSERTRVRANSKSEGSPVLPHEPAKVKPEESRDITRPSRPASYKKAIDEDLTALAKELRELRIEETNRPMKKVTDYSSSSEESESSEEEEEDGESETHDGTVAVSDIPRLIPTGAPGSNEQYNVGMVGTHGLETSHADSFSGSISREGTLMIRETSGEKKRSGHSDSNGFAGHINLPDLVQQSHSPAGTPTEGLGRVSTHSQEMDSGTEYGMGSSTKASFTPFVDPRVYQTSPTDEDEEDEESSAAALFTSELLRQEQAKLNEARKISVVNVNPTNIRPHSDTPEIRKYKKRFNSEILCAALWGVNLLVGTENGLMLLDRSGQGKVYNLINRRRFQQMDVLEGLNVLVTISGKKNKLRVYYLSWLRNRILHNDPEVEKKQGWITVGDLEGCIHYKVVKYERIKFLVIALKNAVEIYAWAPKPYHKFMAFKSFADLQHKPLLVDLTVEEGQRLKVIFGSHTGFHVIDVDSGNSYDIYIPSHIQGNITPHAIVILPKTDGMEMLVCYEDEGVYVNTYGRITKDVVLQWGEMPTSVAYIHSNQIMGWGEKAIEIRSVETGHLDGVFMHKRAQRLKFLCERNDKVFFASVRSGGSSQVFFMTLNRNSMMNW

Ki: 100 nM
Compound: Cc1ccc(C(=O)Nc2sc(Nc3ccccc3)nc2C(N)=O)cc1 [KY-05009, 5-(4-methylbenzamido)-2-(phenylamino)thiazole-4-carboxamide]
